According to patent publication US20210255193A1, “LYSINE REACTIVE PROBES AND USES THEREOF” (The Scripps Research Institute, priority 2017, published 2021):
Each block holds one molecule with its values, some of them ahead of it.

Experiments:
Assay in all cases: competitive isoTOP-ABPP
Assay type in all cases: binding
[1] = target: T1, SLC25A5 ADP/ATP translocase 2 (Homo sapiens, UniProt P05141); conditions: for isoTOP-ABPP ratio, lysine P05141_K23: 50 uM_231_sol_in vitro; for isoTOP-ABPP ratio (R) at liganded lysine P05141_K23: sol, 231
T1 construct: isoTOP-ABPP experiments performed in cell lysates (in vitro); endogenous in cells; host or cells: MDA-MB-231 soluble lysate
T1 sequence (P05141 1-298): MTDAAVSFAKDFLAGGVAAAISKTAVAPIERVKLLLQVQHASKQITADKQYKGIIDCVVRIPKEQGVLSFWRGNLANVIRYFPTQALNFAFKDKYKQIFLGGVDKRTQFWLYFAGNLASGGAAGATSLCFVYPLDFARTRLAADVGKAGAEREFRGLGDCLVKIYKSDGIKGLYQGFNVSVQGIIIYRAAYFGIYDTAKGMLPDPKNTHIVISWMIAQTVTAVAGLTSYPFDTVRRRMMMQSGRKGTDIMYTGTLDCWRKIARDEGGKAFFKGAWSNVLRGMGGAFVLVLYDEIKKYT
Procedure, shortened: (§1)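 Readout: isotopic light/heavy MS1 peak-area ratio (R, DMSO heavy over compound light), median across peptides sharing a modified lysine. Lysate received fragment (activated esters 50 μM, guanidinylating agents 100 μM final) or DMSO, then 0.1 mM STP-alkyne probe for 1 h at ambient temperature.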

[2] = target: T2, NT5DC1 5-nucleotidase domain-containing protein 1 (Homo sapiens, UniProt Q5TFE4); conditions: for R value (DMSO/fragment) for probe 1 labeling: Q5TFE4_K123; for isoTOP-ABPP ratio (R) at liganded lysine Q5TFE4_K123: sol, 231
T2 construct: isoTOP-ABPP experiments performed in cell lysates (in vitro); endogenous in cells; host or cells: soluble proteome of human cancer cell lines (MDA-MB-231; Ramos and Jurkat also prepared)
T2 sequence (Q5TFE4 1-455): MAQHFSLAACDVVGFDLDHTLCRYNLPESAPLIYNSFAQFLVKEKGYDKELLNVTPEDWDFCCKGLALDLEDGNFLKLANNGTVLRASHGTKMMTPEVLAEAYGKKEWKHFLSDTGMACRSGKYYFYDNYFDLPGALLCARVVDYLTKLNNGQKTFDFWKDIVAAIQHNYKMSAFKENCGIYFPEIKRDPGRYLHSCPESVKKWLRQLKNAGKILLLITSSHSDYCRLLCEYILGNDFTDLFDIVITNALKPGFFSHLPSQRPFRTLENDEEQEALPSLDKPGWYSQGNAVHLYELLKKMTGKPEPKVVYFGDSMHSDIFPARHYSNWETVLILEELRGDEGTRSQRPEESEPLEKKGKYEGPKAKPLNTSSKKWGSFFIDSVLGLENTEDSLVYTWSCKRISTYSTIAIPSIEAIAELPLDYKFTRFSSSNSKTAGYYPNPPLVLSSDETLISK
Procedure, shortened: as §1

[3] = target: T3, SMPD1 Sphingomyelin phosphodiesterase (Homo sapiens, UniProt P17405); conditions: for isoTOP-ABPP ratio (R) at liganded lysine P17405_K118: sol, 231
T3 construct: isoTOP-ABPP experiments performed in cell lysates (in vitro); endogenous in cells; host or cells: soluble proteome of human cancer cell lines (MDA-MB-231; Ramos and Jurkat also prepared)
T3 sequence (P17405 47-631): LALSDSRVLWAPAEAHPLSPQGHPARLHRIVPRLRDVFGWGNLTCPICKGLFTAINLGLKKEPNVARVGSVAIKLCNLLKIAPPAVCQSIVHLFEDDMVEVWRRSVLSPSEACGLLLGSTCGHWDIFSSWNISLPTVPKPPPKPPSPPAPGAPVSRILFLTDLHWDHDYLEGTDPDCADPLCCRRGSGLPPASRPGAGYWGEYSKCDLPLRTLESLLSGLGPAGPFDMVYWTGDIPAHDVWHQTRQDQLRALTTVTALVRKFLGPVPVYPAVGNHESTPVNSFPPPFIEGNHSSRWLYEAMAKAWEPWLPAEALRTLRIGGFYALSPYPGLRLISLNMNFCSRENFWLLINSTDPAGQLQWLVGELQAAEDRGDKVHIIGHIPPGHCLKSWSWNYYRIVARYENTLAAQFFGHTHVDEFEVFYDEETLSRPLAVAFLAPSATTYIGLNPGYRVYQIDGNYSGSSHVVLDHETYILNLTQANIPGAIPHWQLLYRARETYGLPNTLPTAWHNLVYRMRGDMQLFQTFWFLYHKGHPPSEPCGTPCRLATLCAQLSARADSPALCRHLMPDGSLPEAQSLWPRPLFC
Procedure, shortened: as §1

isoTOP-ABPP ratio, lysine P05141_K23 [1]: 1.2
SMILES: O=C(Oc1c(F)c(F)cc(F)c1F)c1cc(C(F)(F)F)cc(C(F)(F)F)c1 [fragment 48, 2,3,5,6-Tetrafluorophenyl 3,5-bis(trifluoromethyl)benzoate]

R value (DMSO/fragment) for probe 1 labeling ([2]; 50 uM, 231 sol, in vitro): 20.0
SMILES: O=C(CCc1cn(-c2ccccc2)nc1-c1ccccc1)Oc1c(F)c(F)c(F)c(F)c1F [fragment 19, Pentafluorophenyl 3-(1,3-diphenyl-1H-pyrazol-4-yl)propanoate]

SMILES: O=C(Oc1ccc([N+](=O)[O-])cc1[N+](=O)[O-])C(c1ccccc1)(c1ccccc1)c1ccccc1 [fragment 42, 2,4-Dinitrophenyl 2,2,2-triphenylacetate]
isoTOP-ABPP ratio (R) at liganded lysine Q5TFE4_K123 ([2]; 50 uM, in vitro): 0.6
isoTOP-ABPP ratio (R) at liganded lysine P05141_K23 ([1]; 50 uM, in vitro): 1.1

R value (DMSO/fragment) for probe 1 labeling ([2]; 50 uM, 231 sol, in vitro): 1.2
R value (DMSO/fragment) for probe 1 labeling ([1]; P05141_K23, 50 uM, 231 sol, in vitro): 1.7
SMILES: O=C(Oc1c(F)c(F)c(F)c(F)c1F)c1cc(C(F)(F)F)cc(C(F)(F)F)c1 [fragment 21, Pentafluorophenyl 3,5-bis(trifluoromethyl)benzoate]

SMILES: CC(C)(C)OC(=O)NCCCC(=O)Oc1ccc([N+](=O)[O-])cc1[N+](=O)[O-] [fragment 41, 2,4-Dinitrophenyl 4-((tert-butoxycarbonyl)amino)butanoate]
isoTOP-ABPP ratio (R) at liganded lysine P05141_K23 ([1]; 50 uM, in vitro): 1.0
isoTOP-ABPP ratio (R) at liganded lysine P17405_K118 ([3]; 50 uM, in vitro): 1.5

isoTOP-ABPP ratio, lysine P05141_K23 [1]: 1.8
SMILES: O=C(Oc1c(F)c(F)c(C(F)(F)F)c(F)c1F)c1cc(C(F)(F)F)cc(C(F)(F)F)c1 [fragment 47, 2,3,5,6-Tetrafluoro-4-(trifluoromethyl)phenyl 3,5-bis(trifluoromethyl)benzoate]

SMILES: O=C(Oc1ccc([N+](=O)[O-])cc1[N+](=O)[O-])C1CCN(C(=O)OCc2ccccc2)CC1 [fragment 34, 1-Benzyl 4-(2,4-dinitrophenyl) piperidine-1,4-dicarboxylate]
isoTOP-ABPP ratio (R) at liganded lysine P05141_K23 ([1]; 50 uM, in vitro): 1.1

SMILES: O=C(CCc1cn(-c2ccccc2)nc1-c1ccccc1)Oc1ccc([N+](=O)[O-])cc1[N+](=O)[O-] [fragment 29, 2,4-Dinitrophenyl 3-(1,3-diphenyl-1H-pyrazol-4-yl)propanoate]
isoTOP-ABPP reactivity ratio at lysine Q5TFE4_K123 ([2]; 50 uM, 231 sol, in vitro): 1.2
isoTOP-ABPP reactivity ratio at lysine P05141_K23 ([1]; 50 uM, 231 sol, in vitro): 1.5
isoTOP-ABPP reactivity ratio at lysine P17405_K118 ([3]; 50 uM, 231 sol, in vitro): 2.5

isoTOP-ABPP ratio, lysine P17405_K118 ([3]; 50 uM_231_sol_in vitro): 0.9
SMILES: NC(=O)c1cc(C(F)(F)F)cc(C(F)(F)F)c1 [fragment 51, reference compound]

SMILES: Cn1cc(CC(=O)Oc2ccc([N+](=O)[O-])cc2[N+](=O)[O-])c2ccccc21 [fragment 32, 2,4-Dinitrophenyl 2-(1-methyl-1H-indol-3-yl)acetate]
isoTOP-ABPP reactivity ratio at lysine P05141_K23 ([1]; 50 uM, 231 sol, in vitro): 1.8

SMILES: O=C(CCc1ccc2c(c1)OCO2)Oc1ccc([N+](=O)[O-])cc1[N+](=O)[O-] [fragment 45, 2,4-Dinitrophenyl 3-(benzo[d][1,3]dioxol-5-yl)propanoate]
isoTOP-ABPP ratio, lysine Q5TFE4_K123 ([2]; 50 uM_231_sol_in vitro): 2.1
isoTOP-ABPP ratio, lysine P05141_K23 [1]: 1.2
isoTOP-ABPP ratio, lysine P17405_K118 ([3]; 50 uM_231_sol_in vitro): 1.1

SMILES: O=C(CCc1coc2cc(F)ccc2c1=O)Oc1ccc([N+](=O)[O-])cc1[N+](=O)[O-] [fragment 36, 2,4-Dinitrophenyl 3-(7-fluoro-4-oxo-4H-chromen-3-yl)propanoate]
isoTOP-ABPP ratio (R) at liganded lysine Q5TFE4_K123 ([2]; 50 uM, in vitro): 20.0
isoTOP-ABPP ratio (R) at liganded lysine P05141_K23 ([1]; 50 uM, in vitro): 1.1

isoTOP-ABPP ratio, lysine Q5TFE4_K123 ([2]; 100 uM_231_sol_in vitro): 1.3
isoTOP-ABPP ratio, lysine P17405_K118 ([3]; 100 uM_231_sol_in vitro): 8.4
SMILES: COC(=O)NC(=NC(=O)OCC1c2ccccc2-c2ccccc21)n1cccn1 [fragment 49, N-Methoxycarbonyl-N′-9-fluorenylmethoxycarbonyl-pyrazole-1-carboxamidine]

SMILES: O=C(CC12CC3CC(CC(C3)C1)C2)Oc1ccc([N+](=O)[O-])cc1[N+](=O)[O-] [fragment 38, 2,4-Dinitrophenyl 2-(adamantan-1-yl)acetate]
isoTOP-ABPP ratio (R) at liganded lysine P05141_K23 ([1]; 50 uM, in vitro): 1.1
isoTOP-ABPP ratio (R) at liganded lysine P17405_K118 ([3]; 50 uM, in vitro): 1.2
